Data published in ChEMBL document CHEMBL5620422, “Design, synthesis, and biological evaluation of a series of new anthraquinone derivatives as anti-ZIKV agents” (Eur J Med Chem, 2023).
Active and inactive are the calls of the source. No cut-off for these calls is given here.

How the values were obtained:
[1] = tested on: SNB-19; test: Antiinflammatory activity in human SNB-19 cells assessed as reduction in IL-6 expression by RT-PCR analysis; type: functional, cell-based
[2] = tested on: Zika virus; test: Antiviral activity against ZIKV ZG-01 infected in human SNB-19 cells assessed as reduction in cell pyroptosis; type: functional, organism-based
[3] = tested on: Zika virus; test: Antiviral activity against ZIKV ZG-01 infected in Ifnar1 knockout C57BL/6 mouse assessed as reduction in microglia activation by measuring Iba-1 expression at 20 mg/kg, iv administered daily for 7 days by immunohistochemistry analysis; type: functional, organism-based; details: time 7.0 day
[4] = tested on: Zika virus; test: Antiviral activity against ZIKV ZG-01 infected in human JEG-3 cells assessed as reduction in IFNgamma expression at 1 to 5 uM by RT-PCR analysis; type: functional, organism-based; details: dose 1-5 µM
[5] = tested on: Zika virus; test: Antiviral activity against ZIKV ZG-01 infected in Ifnar1 knockout C57BL/6 mouse assessed as reduction in astrocytes activation by measuring GFAP expression at 20 mg/kg, iv administered daily for 7 days by immunohistochemistry analysis; type: functional, organism-based; details: time 7.0 day
[6] = tested on: Zika virus; test: Antiviral activity against ZIKV ZG-01 infected in human SNB-19 cells assessed as reduction in GSDME cleavage by Western blot analysis; type: functional, organism-based; details: dose 1-20 µM
[7] = tested on: Zika virus; test: Antiviral activity against ZIKV ZG-01 infected in Ifnar1 knockout C57BL/6 mouse assessed as reduction in weight loss at 20 mg/kg, iv administered daily for 7 days and measured upto 12 dpi; type: functional, organism-based; details: time <= 12.0 day
[8] = tested on: Zika virus; test: Antiviral activity against ZIKV ZG-01 infected in human JEG-3 cells assessed as reduction in IL-6 expression at 1 to 5 uM by RT-PCR analysis; type: functional, organism-based; details: dose 1-5 µM
[9] = tested on: Zika virus; test: Antiviral activity against ZIKV ZG-01 infected in Vero cells assessed as reduction in viral replication at 20 uM preincubated for 1 hr followed by replacement with fresh media containing compound for 48 hrs by RT-PCR analysis; type: functional; parameters: scale not given: the % may be the effect or the level left; details: time 49 hrs
[10] = tested on: Zika virus; test: Antiviral activity against ZIKV ZG-01 infected in JEG-3 cells assessed as reduction in viral replication at 20 uM preincubated for 1 hr followed by replacement with fresh media containing compound for 48 hrs by RT-PCR analysis; type: functional; parameters: scale not given: the % may be the effect or the level left; details: time 49 hrs
[11] = tested on: Zika virus; test: Antiviral activity against ZIKV ZG-01 infected in Ifnar1 knockout C57BL/6 mouse assessed as reduction in neuronal necrosis by measuring necrotic debris at 20 mg/kg, iv administered daily for 7 days and measured upto 12 dpi by H and E staining based analysis; type: functional, organism-based; details: time <= 12.0 day
[12] = tested on: Zika virus; test: Antiviral activity against ZIKV ZG-01 infected in JEG-3 cells preincubated for 1 hr followed by replacement with fresh media containing compound for 48 hrs by crystal violet staining based plaque assay; type: functional
[13] = tested on: Zika virus; test: Antiviral activity against ZIKV ZG-01 infected in human SNB-19 cells assessed as reduction in IL-1beta release at 1 to 5 uM by ELISA; type: functional, organism-based; details: dose 1-5 µM
[14] = tested on: Zika virus; test: Antiviral activity against ZIKV ZG-01 infected in human SNB-19 cells assessed as reduction in LDH release incubated for 36 hrs; type: functional, organism-based; details: dose 1-5 µM
[15] = tested on: HEK293T; test: Inhibition of ZIKV RNA polymerase NS5 expressed in HEK293T cells co-transfected with Gluc-reporter gene at 20 uM incubated for 24 hrs by Dual-glo luminescence assay; type: cell-based; details: Zika virus
[16] = tested on: Zika virus; test: Antiviral activity against ZIKV ZG-01 infected in human JEG-3 cells assessed as reduction in IL-1beta release at 1 to 5 uM by ELISA; type: functional, organism-based; details: dose 1-5 µM
[17] = Toxicity in Ifnar1 knockout C57BL/6 mouse assessed as movement disorders at 60 mg/kg administered for 7 days; type: organism-based; details: in vivo, 168 h, time 7 day
[18] = tested on: SNB-19; test: Antiinflammatory activity in human SNB-19 cells assessed as reduction in IFNgamma expression by RT-PCR analysis; type: functional, cell-based
[19] = tested on: Zika virus; test: Antiviral activity against ZIKV ZG-01 infected in Ifnar1 knockout C57BL/6 mouse assessed as reduction in duration of animal paralysis at 20 mg/kg, iv administered daily for 7 days; type: functional, organism-based; details: time 7.0 day
[20] = tested on: SNB-19; test: Antiinflammatory activity in human SNB-19 cells assessed as reduction in IL-1beta expression by RT-PCR analysis; type: functional, cell-based
[21] = tested on: Zika virus; test: Antiviral activity against ZIKV ZG-01 infected in human SNB-19 cells assessed as reduction in IFNgamma expression at 1 to 5 uM by RT-PCR analysis; type: functional, organism-based; details: dose 1-5 µM
[22] = tested on: JEG-3; test: Antiinflammatory activity in human JEG-3 cells assessed as reduction in IFNgamma expression by RT-PCR analysis; type: functional, cell-based
[23] = Cytotoxicity against human SNB-19 cells assessed as reduction in cell viability incubated for 48 hrs by MTT assay; type: toxicity, cell-based
[24] = tested on: Zika virus; test: Antiviral activity against ZIKV ZG-01 infected in A549 cells preincubated for 1 hr followed by replacement with fresh media containing compound for 48 hrs by crystal violet staining based plaque assay; type: functional, organism-based; details: time 49.0 hrs
[25] = tested on: Zika virus; test: Antiviral activity against ZIKV ZG-01 infected in Ifnar1 knockout C57BL/6 mouse assessed as reduction in neuronal necrosis by measuring karyolysis at 20 mg/kg, iv administered daily for 7 days and measured upto 12 dpi by H and E staining based analysis; type: functional, organism-based; details: time <= 12.0 day
[26] = tested on: Zika virus; test: Antiviral activity against ZIKV ZG-01 infected in Ifnar1 knockout C57BL/6 mouse assessed as increase in animal survival at 20 mg/kg, iv administered daily for 7 days; type: functional, organism-based; details: time 7.0 day
[27] = tested on: Zika virus; test: Antiviral activity against ZIKV ZG-01 infected in SNB-19 cells assessed as reduction in number of viral positive cells at 5 uM by immunofluorescence assay; type: functional, organism-based
[28] = tested on: Zika virus; test: Antiviral activity against ZIKV ZG-01 infected in Ifnar1 knockout C57BL/6 mouse assessed as reduction in brain viral RNA at 20 mg/kg, iv administered daily for 7 days and measured upto 12 dpi by RT-qPCR analysis; type: functional, organism-based; details: time <= 12.0 day
[29] = tested on: Zika virus; test: Antiviral activity against ZIKV ZG-01 infected in JEG-3 cells assessed as reduction in viral envelope protein level at 1 to 20 uM after 48 hrs by Western blot assay; type: functional, organism-based; details: dose 1-20 µM
[30] = tested on: Zika virus; test: Antiviral activity against ZIKV ZG-01 infected in SNB-19 cells assessed as reduction in viral replication at 20 uM preincubated for 1 hr followed by replacement with fresh media containing compound for 48 hrs by RT-PCR analysis; type: functional; parameters: scale not given: the % may be the effect or the level left; details: time 49 hrs
[31] = tested on: Zika virus; test: Antiviral activity against ZIKV ZG-01 infected in human JEG-3 cells assessed as reduction in LDH release incubated for 36 hrs; type: functional, organism-based; details: dose 1-5 µM
[32] = tested on: Zika virus; test: Antiviral activity against ZIKV ZG-01 infected in human JEG-3 cells assessed as reduction in GSDMD cleavage by Western blot analysis; type: functional, organism-based; details: dose 1-20 µM
[33] = tested on: Zika virus; test: Antiviral activity against ZIKV ZG-01 infected in JEG-3 cells assessed as reduction in number of viral positive cells at 5 uM by immunofluorescence assay; type: functional, organism-based
[34] = tested on: Zika virus; test: Antiviral activity against ZIKV ZG-01 infected in human SNB-19 cells assessed as reduction in IL-6 expression at 1 to 5 uM by RT-PCR analysis; type: functional, organism-based; details: dose 1-5 µM
[35] = tested on: Zika virus; test: Antiviral activity against ZIKV ZG-01 infected in human SNB-19 cells assessed as reduction in TNFalpha release at 1 to 5 uM by ELISA; type: functional, organism-based; details: dose 1-5 µM
[36] = Cytotoxicity against human JEG-3 cells assessed as reduction in cell viability incubated for 48 hrs by MTT assay; type: toxicity, cell-based

SMILES: C[C@]1(O)CC2=C(C[C@@]1(C)O)C(=O)c1c(O)cc(N3CCC(c4ccccc4)CC3)c(O)c1C2=O
- Activity [1]: inactive
- Activity [2]: Active
- Activity [3]: Active
- Activity [4]: Active
- Activity [5]: Active
- Activity [6]: Dose-Dependent Effect
- Activity [7]: Active
- Activity [8]: Active
- Activity [9]: 100%
- Activity [10]: 100%
- Activity [11]: Active
- EC90 ([12]; ZG-01, JEG-3, time 49 hrs): 6.4 µM
- Activity ([12]; time 49.0 hrs): Dose-Dependent Effect
- Activity [13]: Active
- Activity [14]: Dose-Dependent Effect
- inhibition [15]: Dose-Dependent Effect
- Activity [16]: Active
- Activity [17]: Non-Toxic
- Activity [18]: inactive
- Activity [19]: Active
- Activity [20]: inactive
- Activity [21]: Active
- Activity [22]: inactive
- CC50 at 48 h [23]: 66.1 µM
- Activity [24]: Dose-Dependent Effect
- Activity [25]: Active
- Activity [26]: Active
- Activity [27]: Active
- Activity [28]: Active
- Activity [29]: Active
- Activity [30]: 100%
- Activity [31]: Dose-Dependent Effect
- Activity [32]: Dose-Dependent Effect
- Activity [33]: Active
- Activity [34]: Active
- Activity [35]: Active
- CC50 at 48 h [36]: 54.7 µM
